Earlier results, collected in patent US20130156896A1, “CELLULOSE-BASED FOOD CASING HAVING A FUNGICIDAL FINISH AND A METHOD FOR PROTECTING CELLULOSE-BASED FOOD CASINGS FROM MOLD INFESTATION” (CASETECH GMBH, priority 2011, published 2013).

Tests used:
Staphylococcus aureus = details: for example against Staphylococcus aureus
[1] = animal testing
microorganisms = details: known from the literature

## CC(C)c1cc2c(c(O)c1O)[C@@]1(C(=O)O)CCCC(C)(C)[C@@H]1CC2 [carnosic acid]
Staphylococcus aureus
  antimicrobial activity: antimicrobial activity
[1]
  chemoprotective effect against carcinogens: chemoprotective effect

## COc1ccc(O)c(C(C)(C)C)c1 [BHA, butylated hydroxyanisole]
microorganisms
  activity against microorganisms: relatively weak activity
